Target: T1, TTD–PHD (UHRF1_126–366) (Homo sapiens, UniProt Q96T88)
T1 construct: His tag (TEV-cleavable) (N); made in house
T1 sequence (Q96T88 126-366): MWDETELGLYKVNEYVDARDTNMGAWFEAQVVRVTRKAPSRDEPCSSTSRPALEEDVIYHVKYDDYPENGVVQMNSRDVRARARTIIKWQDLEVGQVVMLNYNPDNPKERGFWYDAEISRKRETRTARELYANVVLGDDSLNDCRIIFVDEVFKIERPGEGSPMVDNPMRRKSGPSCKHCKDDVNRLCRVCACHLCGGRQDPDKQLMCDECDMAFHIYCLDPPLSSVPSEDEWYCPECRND
Test: SES ensemble fitting of SAXS data of TTD–PHD with BPC
Description: The Rg-based Kratky plot is shifted to higher coordinate values with respect to its position for apo TTD–PHD (supplemental Fig. S4). […] We performed SES fitting of SAXS data collected for TTD–PHD in the presence of BPC using MDPIN/OUT. The optimal ensemble, OEBPC(SAXS), fits the data reasonably well in the q range of 0 < q < 0.2. The Rg distribution is bimodal with the major peak at ∼25 Å and a minor peak at ∼34 Å (Fig. 4D). […] These less-compact, “linker-out” conformers should be unable to bind to H3K9me3 peptides in a cooperative manner (as in PDB code 3ASK ([10], [23])) and, in addition, be unable to bind via the isolated TTD because groove-H3K9me3 contacts found to be essential for this binding mode, as reported by Nady et al. ([9]), are blocked.
We used an ensemble approach for the structural characterization of the TTD–PHD in solution by utilizing the SES protocol ([18]). The strategy on which the SES method is based consists of two main steps: 1) generate the initial ensemble of conformations to approximate the conformational space available for a system in solution and 2) find the optimal population weight for each member of the initial ensemble that minimizes the discrepancy between the ensemble-predicted and the observed experimental data. The goodness of the ensemble fit is measured as χ^2. […] The ARMOR output was analyzed to select the optimal ensemble size using the l-curve ([18]), and the vector of the optimal weights, w, was calculated by averaging over top near optimal solutions with similar value of χ^2. […]

[1] = SES fitting using MDPIN/OUT, TTD–PHD with BPC

## N=C(N)N1CCC(Cc2ccccc2)CC1 [BPC, 4-benzylpiperidine-1-carboximidamide]
6,000 starting structures with linker bound to groove
  contribution of linker-bound structures to OEBPC(SAXS): zero contribution
[1]
  Rg distribution of OEBPC(SAXS), major peak: ~25 Å
  Rg distribution of OEBPC(SAXS), minor peak: ~34 Å
